According to patent US20240277670A1, “SAFE USE OF MMP-12 INHIBITOR” (Foresee Pharmaceuticals Co., Ltd., priority 2021, published 2024):
Where two headings read alike, the source gives them in different places.

Test: Multiple ascending dose (MAD) part, plasma pharmacokinetics
Format: in vivo, human
Conditions: for CL/F / Kel / AI / CLss/F / Cavg / Cmin / Fl / RAUC2: AUC0-12 (Day 8)/AUC0-inf (Day 1) / AUC(0-t) / AUC(0-inf) / Cmax / half-life / Vd/F: mean; for AUC(0-t) / AUC(0-inf) / Cmax / half-life / Vd/F / Tmax: human, plasma; for Vd/F: read-out: Vz/F; for Tmax: median
Method: Three cohorts of eight subjects each (six on active and two on placebo) were enrolled and received the following treatments orally: 100 mg, 200 mg, and 400 mg ASD-in-Capsule b.i.d. (one dose on Days 1 and 8, twice-daily doses from Days 2 to 7) (FIG. 4).
Blood samples were collected post-dosing on Day 1 (at 0.5, 1, 2, 3, 4, 6, 8, 12, and 16 hours) and Day 8 (at 0.5, 1, 2, 3, 4, 6, 8, 10, 12, 16, 20, 24, 30, 36, and 48 hours) as well as immediately pre-morning dose on Days 2-7 and 2 hours post-morning dose on Days 4 and 6. Within 15 minutes of collection, blood samples were centrifuged at 2000 rpm for 10 minutes at 4° C., and, subsequently, the plasma was aliquoted, frozen, and stored at −70° C. pending PK analyses.
The samples were subjected to liquid chromatography followed by analyses by tandem mass spectrometry. The lower limit of quantification for the compound of formula (I) was 5 ng/mL.
The plasma PK parameters were derived by non-compartmental analyses using Phoenix® WinNonlin® version 6.3 or higher (Pharsight Corporation Inc., Mountain View, CA, USA). PK variables were summarized using arithmetic mean, standard deviation, median, minimum, maximum, the percent coefficient of variation, geometric mean, and a two-sided 95% confidence limit of the arithmetic mean and the geometric mean.

[1] = Treatment A (100 mg ASD-in-Capsule oral), Day 1
[2] = Treatment A (100 mg, b.i.d. Days 2-7), Day 8
[3] = Treatment B (200 mg ASD-in-Capsule oral), Day 1
[4] = Treatment B (200 mg, b.i.d. Days 2-7), Day 8
[5] = Treatment C (400 mg ASD-in-Capsule oral), Day 1
[6] = Treatment C (400 mg, b.i.d. Days 2-7), Day 8
[7] = oral, Treatment A (100 mg, b.i.d. Days 2-7), Day 8
[8] = oral, Treatment B (200 mg, b.i.d. Days 2-7), Day 8
[9] = oral, Treatment C (400 mg, b.i.d. Days 2-7), Day 8

Cc1cccc(COc2ccc(Sc3ccoc3C3NC(=O)NC3=O)cc2)c1 (stereo not drawn) [compound of formula (I)]
CL/F [1]: 28.7 L/h
Kel [1]: 0.106 h⁻¹
AI [2]: 1.59
CLss/F [2]: 23.1 L/h
Cavg [2]: 365 ng/mL
Cmin [2]: 156 ng/mL
Fl [2]: 127%
Kel [2]: 0.0897 h⁻¹
RAUC2: AUC0-12 (Day 8)/AUC0-inf (Day 1) (Treatment A (100 mg, b.i.d. Days 2-7)): 1.25
CL/F [3]: 20.3 L/h
Kel [3]: 0.119 h⁻¹
AI [4]: 1.57
CLss/F [4]: 16.2 L/h
Cavg [4]: 1090 ng/mL
Cmin [4]: 524 ng/mL
Fl [4]: 132%
Kel [4]: 0.0895 h⁻¹
RAUC2: AUC0-12 (Day 8)/AUC0-inf (Day 1) (Treatment B (200 mg, b.i.d. Days 2-7)): 1.26
CL/F [5]: 24.0 L/h
Kel [5]: 0.113 h⁻¹
AI [6]: 1.40
CLss/F [6]: 18.2 L/h
Cavg [6]: 2060 ng/mL
Cmin [6]: 1010 ng/mL
Fl [6]: 142%
Kel [6]: 0.115 h⁻¹
RAUC2: AUC0-12 (Day 8)/AUC0-inf (Day 1) (Treatment C (400 mg, b.i.d. Days 2-7)): 1.28
Steady state achieved (all three dose levels (100, 200, 400 mg b.i.d.)): ≤ 6 days
Increase of Cmax and AUC with dose (from 200 to 400 mg after multiple doses for a week): approximately in a dose-proportional manner
AUC(0-t) (oral, 100 mg, Treatment A (100 mg, b.i.d. Days 2-7), Day 8, read-out: AUC0-12): 4380 ng·h/mL
AUC(0-t) (oral, 200 mg, Treatment B (200 mg, b.i.d. Days 2-7), Day 8, read-out: AUC0-12): 13100 ng·h/mL
AUC(0-t) (oral, 400 mg, Treatment C (400 mg, b.i.d. Days 2-7), Day 8, read-out: AUC0-12): 24700 ng·h/mL
AUC(0-inf) [7]: 6180 ng·h/mL
Cmax [7]: 624 ng/mL
half-life [7]: 8.37 h
Vd/F [7]: 277 L
Tmax [7]: 2 h
AUC(0-inf) [8]: 19200 ng·h/mL
Cmax [8]: 1920 ng/mL
half-life [8]: 8.14 h
Vd/F [8]: 189 L
Tmax [8]: 1.5 h
AUC(0-inf) [9]: 36300 ng·h/mL
Cmax [9]: 3710 ng/mL
half-life [9]: 6.57 h
Vd/F [9]: 158 L
Tmax [9]: 1.5 h
AUC(0-t) (po, 100 mg, Treatment A (100 mg ASD-in-Capsule oral), Day 1, read-out: AUC0-12): 2670 ng·h/mL
AUC(0-t) (po, 100 mg, Treatment A (100 mg ASD-in-Capsule oral), Day 1, read-out: AUC0-24): 3290 ng·h/mL
AUC(0-t) (po, 100 mg, Treatment A (100 mg ASD-in-Capsule oral), Day 1, read-out: AUC0-t): 3290 ng·h/mL
AUC(0-t) (po, 200 mg, Treatment B (200 mg ASD-in-Capsule oral), Day 1, read-out: AUC0-12): 7810 ng·h/mL
AUC(0-t) (po, 200 mg, Treatment B (200 mg ASD-in-Capsule oral), Day 1, read-out: AUC0-24): 9720 ng·h/mL
AUC(0-t) (po, 200 mg, Treatment B (200 mg ASD-in-Capsule oral), Day 1, read-out: AUC0-t): 9710 ng·h/mL
AUC(0-t) (po, 400 mg, Treatment C (400 mg ASD-in-Capsule oral), Day 1, read-out: AUC0-12): 14600 ng·h/mL
AUC(0-t) (po, 400 mg, Treatment C (400 mg ASD-in-Capsule oral), Day 1, read-out: AUC0-24): 18200 ng·h/mL
AUC(0-t) (po, 400 mg, Treatment C (400 mg ASD-in-Capsule oral), Day 1, read-out: AUC0-t): 18200 ng·h/mL
AUC(0-inf) [1]: 3550 ng·h/mL
Cmax [1]: 448 ng/mL
half-life [1]: 6.9 h
Vd/F [1]: 291 L
Tmax [1]: 1 h
AUC(0-inf) [3]: 10400 ng·h/mL
Cmax [3]: 1200 ng/mL
half-life [3]: 6.02 h
Vd/F [3]: 176 L
Tmax [3]: 1.02 h
AUC(0-inf) [5]: 19900 ng·h/mL
Cmax [5]: 2730 ng/mL
half-life [5]: 6.48 h
Vd/F [5]: 212 L
Tmax [5]: 1 h
AUC ratio (Day 8/Day 1) (twice-daily administration, all three dose levels): approximately 1.7 fold
